Laboratory results as given in patent US12605361B2, “Carboxylated psilocybin derivatives and methods of using” (Enveric Biosciences Canada Inc., priority 2020, dated 2026).

Legend:
[1] = target: T1, 5-HT2A receptor (Homo sapiens, UniProt P28223); assay: [3H]ketanserin competition binding assay (SPA) on membranes containing 5-HT2A; settings: fixed (1 nM) [3H]ketanserin; FIG. 13B, 13C
T1 construct: purchased PerkinElmer ES-313-M400UA
Source text: Evaluation of drug binding is an essential step to characterization of all drug-target interactions (Fang 2012, Exp Opin Drug Discov 7:969). The binding affinity of a drug to a target is traditionally viewed as an acceptable surrogate of its in vivo efficacy (Núñez et al., 2012, Drug Disc Today 17: 10). Competition assays, also called displacement or modulation binding assays, are a common approach to measure activity of a ligand at a target receptor (Flanagan 2016, Methods Cell Biol 132: 191). In these assays, standard radioligands acting either as agonists or antagonists are ascribed to specific receptors. […] After incubation, the samples were read on a MicroBeta 2 Microplate Counter (Perkin Elmer). […] Equilibrium binding constants for ketanserin (Kd) were determined from saturation binding curves using the ‘one-site saturation binding analysis’ method of GraphPad PRISM software (Version 9.2.0). […] Ki values were calculated from the competition displacement data using the competitive binding analysis from GraphPad PRISM software. […] Specific binding in counts per minute (cpm) was calculated by subtracting non-specific binding from total binding. Specific binding (pmol/mg) was calculated from μmol of [^3H]ketanserin bound per mg of protein in the assay. The Kd was calculated by fitting the data with the one-site binding model of PRISM software (version 9.2.0).

[2] = tested on: CHO-K1/Gα15 (−5-HT1A) cells; assay: cAMP-Glo assay in −5-HT1A control cells (CHO-K1/Gα15); type: cell-based; settings: −5HT1A cell cultures (control without 5-HT1A receptor); FIG. 14D-14F
Source text: CHO-K1/Gα15 (GenScript, M00257) (−5-HT1A) and CHO-K1/5-HT1A/Gα15 (GenScript, M00330) (+5-HT1A) cells lines were used. Briefly, CHO-K1/Gα15 is a control cell line that constitutively expresses Gα15 which is a promiscuous Gq protein. This control cell line lacks any transgene encoding 5-HT1A receptors, but still responds to forskolin; thus, cAMP response to forskolin should be the same regardless of whether or not 5-HT1A agonists are present. Conversely, CHO-K1/5-HT1A/Gα15 cells stably express 5-HT1A receptor in the CHO-K1 host background. […] In +5-HT1A cells, Gα15 may be recruited in place of Gαi/o, which could theoretically dampen cAMP response (Rojas and Fiedler 2016, Front Cell Neurosci 10: 272). […] In contrast, tryptophan is not known to activate 5-HT1A receptors, and was thus used as a negative control. Cells were maintained in complete growth media as recommended by supplier (GenScript) which is constituted as follows: Ham's F12 Nutrient mix (HAM's F12, GIBCO #11765-047) with 10% fetal bovine serum (FBS) (Thermo Scientific #12483020), 200 μg/ml zeocin (Thermo Scientific #R25005) and/or 100 μg/ml hygromycin (Thermo Scientific #10687010). The cells were cultured in a humidified incubator with 37° C. and 5% CO2. Cells maintenance was carried out as recommended by the cell supplier. Briefly, vials with cells were removed from the liquid nitrogen and thawed quickly in 37° C. water bath. Just before the cells were completely thawed the vial's outside was decontaminated by 70% ethanol spray. […]
As 5-HT1A activation inhibits cAMP formation, the agonist activity of test molecules on 5-HT1A was measured via the reduction in the levels of cAMP produced due to application of 4 μM forskolin. The change in intracellular cAMP levels due to the treatment of novel molecules was measured using cAMP-Glo Assay kit (Promega #V1501). […] Reduced ATP caused reduced conversion of luciferin to oxyluciferin, conferring diminished luminescence as the result of 5-HT1A activation. […]

[3] = target: T2, 5-HT1A receptor (Homo sapiens, UniProt P08908); assay: cAMP-Glo assay of 5-HT1A activation in +5-HT1A cells (CHO-K1/5-HT1A/Gα15); type: cell-based; settings: for 5-HT1A binding activity from % cAMP levels trend: +5HT1A cell cultures; for 5-HT1A activity from luminescence (cAMP) trend: +5HT1A cell culture, FIG. 14B, 14C
T2 construct: host or cells: CHO-K1 stably expressing 5-HT1A and Gα15
T2 sequence (P08908 1-422): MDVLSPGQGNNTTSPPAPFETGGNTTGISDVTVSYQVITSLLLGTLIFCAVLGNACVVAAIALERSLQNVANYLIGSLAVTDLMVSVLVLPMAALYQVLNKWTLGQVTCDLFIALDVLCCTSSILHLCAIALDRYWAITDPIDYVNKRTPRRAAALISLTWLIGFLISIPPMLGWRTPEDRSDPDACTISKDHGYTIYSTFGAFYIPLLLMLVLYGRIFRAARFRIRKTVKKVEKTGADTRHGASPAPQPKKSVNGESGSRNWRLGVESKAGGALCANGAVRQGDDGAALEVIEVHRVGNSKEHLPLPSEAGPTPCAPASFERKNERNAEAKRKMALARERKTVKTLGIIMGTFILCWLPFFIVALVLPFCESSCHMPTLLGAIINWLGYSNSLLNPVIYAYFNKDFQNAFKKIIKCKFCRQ
Source text: CHO-K1/Gα15 (GenScript, M00257) (−5-HT1A) and CHO-K1/5-HT1A/Gα15 (GenScript, M00330) (+5-HT1A) cells lines were used. Briefly, CHO-K1/Gα15 is a control cell line that constitutively expresses Gα15 which is a promiscuous Gq protein. This control cell line lacks any transgene encoding 5-HT1A receptors, but still responds to forskolin; thus, cAMP response to forskolin should be the same regardless of whether or not 5-HT1A agonists are present. Conversely, CHO-K1/5-HT1A/Gα15 cells stably express 5-HT1A receptor in the CHO-K1 host background. […] In +5-HT1A cells, Gα15 may be recruited in place of Gαi/o, which could theoretically dampen cAMP response (Rojas and Fiedler 2016, Front Cell Neurosci 10: 272). […] In contrast, tryptophan is not known to activate 5-HT1A receptors, and was thus used as a negative control. Cells were maintained in complete growth media as recommended by supplier (GenScript) which is constituted as follows: Ham's F12 Nutrient mix (HAM's F12, GIBCO #11765-047) with 10% fetal bovine serum (FBS) (Thermo Scientific #12483020), 200 μg/ml zeocin (Thermo Scientific #R25005) and/or 100 μg/ml hygromycin (Thermo Scientific #10687010). The cells were cultured in a humidified incubator with 37° C. and 5% CO2. Cells maintenance was carried out as recommended by the cell supplier. Briefly, vials with cells were removed from the liquid nitrogen and thawed quickly in 37° C. water bath. Just before the cells were completely thawed the vial's outside was decontaminated by 70% ethanol spray. The cell suspension was then retrieved from the vial and added to warm (37° C.) complete growth media, and centrifuged at 1,000 rpm for 5 minutes. The supernatant was discarded, and the cell pellet was then resuspended in another 10 ml of complete growth media, and added to the 10 cm cell culture dish (Greiner Bio-One #664160). The media was changed every third day until the cells were about 90% confluent. The ˜90% confluent cells were then split 10:1 for maintenance or used for experiment.
The change in intracellular cAMP levels due to the treatment of novel molecules was measured using cAMP-Glo Assay kit (Promega #V1501). Briefly, +5-HT1A cells were seeded on 1-6 columns and base −5-HT1A cells were seeded on columns 7-12 of the white walled clear bottom 96-well plate (Corning, #3903). Both cells were seeded at the density of 30,000 cells/well in 100 μl complete growth media and cultured 24 hrs in humidified incubator at 37° C. and 5% CO2. On the experiment day, the media of cells was replaced with serum/antibiotic free culture media. Then the cells were treated for 20 minutes with test molecules dissolved in induction medium ([…], 500 μM IBMX (isobutyl-1-methylxanthine, Sigma-Aldrich, Cat. #17018) and 100 μM (RO 20-1724, Sigma-Aldrich, Cat. #B8279)). Forskolin induced cAMP formation whereas IBMX and RO 20-1724 inhibited the degradation of cAMP. PKA was added to the lysate, mixed, and subsequently the substrate of the PKA was added. PKA was activated by cAMP, and the amount of ATP consumed due to PKA phosphorylation directly corresponded to cAMP levels in the lysate. Reduced ATP caused reduced conversion of luciferin to oxyluciferin, conferring diminished luminescence as the result of 5-HT1A activation. […] Note that compound (VI) is shown simply as (VI) along the x-axis. For FIGS A-C, error bars represent results of three experiments (n=3).

[4] = fixed (4 μM) forskolin, decreasing dosages of ligand, FIG. 14D, 14E
[5] = fixed (4 μM) forskolin, decreasing dosages of ligand

T1 sequence (P28223 whole entry): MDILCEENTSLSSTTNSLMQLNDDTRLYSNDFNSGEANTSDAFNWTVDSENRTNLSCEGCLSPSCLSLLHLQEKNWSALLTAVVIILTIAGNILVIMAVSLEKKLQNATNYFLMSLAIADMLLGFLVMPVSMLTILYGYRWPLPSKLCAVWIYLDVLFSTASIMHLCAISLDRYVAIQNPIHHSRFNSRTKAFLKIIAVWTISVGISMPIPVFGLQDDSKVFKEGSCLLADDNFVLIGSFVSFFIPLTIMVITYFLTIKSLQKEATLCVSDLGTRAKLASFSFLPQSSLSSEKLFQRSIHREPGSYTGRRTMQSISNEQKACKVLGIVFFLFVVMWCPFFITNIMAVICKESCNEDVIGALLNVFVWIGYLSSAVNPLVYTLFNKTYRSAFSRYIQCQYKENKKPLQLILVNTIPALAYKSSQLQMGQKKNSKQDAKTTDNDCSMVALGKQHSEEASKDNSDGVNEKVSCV

| Structure (SMILES) | competition binding curve versus [3H]ketanserin [1] | trend of increasing % cAMP levels with decreasing compound [2] | 5-HT1A binding activity from % cAMP levels trend [3, 4] | 5-HT1A activity from luminescence (cAMP) trend [3, 5] | further results |
| --- | --- | --- | --- | --- | --- |
| CN(C)CCc1c[nH]c2cccc(O)c12 [psilocin] | binding |  |  |  |  |
| COc1ccc(C(=O)O)c2[nH]cc(CCN)c12 [compound (VI)] |  | not observed | mild 5-HT1A binding activity |  |  |
| NCCc1c[nH]c2ccc(O)cc12 [serotonin] |  | not observed | 5-HT1A binding activity |  |  |
| CN(C)CCc1c[nH]c2ccccc12 [DMT] |  |  |  | 5-HT1A activity |  |
| NCCc1c[nH]c2c(C(=O)O)ccc(O)c12 [compound (VII)] |  | not observed |  |  | 5-HT1A binding activity from % cAMP levels trend ([3]; decreasing dosages of compound, FIG. 14F): 5-HT1A binding activity |
| N[C@@H](Cc1c[nH]c2ccccc12)C(=O)O [tryptophan] | no binding |  |  | lack of 5-HT1A activity |  |
